In ChEMBL document CHEMBL1275588, “Role of pfmdr1 amplification and expression in induction of resistance to artemisinin derivatives in Plasmodium falciparum” (Antimicrob Agents Chemother, 2010):
The source made the active and inactive calls. The calls are words filed in the database; no cut-off is given here.

Key:
Plasmodium falciparum [1] = test: Antimalarial activity against Plasmodium falciparum W2 assessed as level of pfmdr1 mRNA expression organism selected on 80 ng/ml of compound by quantitative real-time RT-PCR with respect to wild type; format: functional
Plasmodium falciparum [2] = test: Antimalarial activity against Plasmodium falciparum W2 harboring 3 copy number of pfmdr1 gene organism selected at 50 ng/ml compound concentration; format: functional, organism-based
Plasmodium falciparum [3] = test: Antimalarial activity against Plasmodium falciparum TM91C235 assessed as inhibition of [3H]hypoxanthine uptake organism selected on 80 ng/mL compound concentration; format: functional, organism-based
Plasmodium falciparum [4] = test: Antimalarial activity against Plasmodium falciparum D6 assessed as inhibition of [3H]hypoxanthine uptake; format: functional, organism-based
Plasmodium falciparum [5] = test: Antimalarial activity against Plasmodium falciparum D6 assessed as inhibition of [3H]hypoxanthine uptake organism selected on 80 ng/ml compound concentration; format: functional, organism-based
Plasmodium falciparum [6] = test: Antimalarial activity against Plasmodium falciparum TM91C235 assessed as inhibition of [3H]hypoxanthine uptake; format: functional, organism-based
Plasmodium falciparum [7] = test: Antimalarial activity against Plasmodium falciparum W2 organism selected on up to 80 ng/ml compound concentration; format: functional, organism-based
Plasmodium falciparum [8] = test: Antimalarial activity against Plasmodium falciparum TM91C235 harboring 3 copy number of pfmdr1 gene organism selected at 80 ng/ml compound concentration; format: functional, organism-based
Plasmodium falciparum [9] = test: Antimalarial activity against Plasmodium falciparum W2 harboring 1 copy number of pfmdr1 gene organism selected at 10 to 30 ng/ml compound concentration; format: functional, organism-based
Plasmodium falciparum [10] = test: Antimalarial activity against Plasmodium falciparum TM91C235 selected on 30 ng/ml compound concentration; format: functional, organism-based
Plasmodium falciparum [11] = test: Antimalarial activity against Plasmodium falciparum D6 harboring 1 copy number of pfmdr1 gene organism selected at up to 80 ng/ml compound concentration; format: functional, organism-based
Plasmodium falciparum [12] = test: Antimalarial activity against Plasmodium falciparum W2 assessed as inhibition of [3H]hypoxanthine uptake; format: functional, organism-based
Plasmodium falciparum [13] = test: Antimalarial activity against Plasmodium falciparum TM91C235 harboring 2 copy number of pfmdr1 gene organism selected at 10 to 50 ng/ml compound concentration; format: functional, organism-based
Plasmodium falciparum [14] = test: Antimalarial activity against Plasmodium falciparum D6 assessed as level of pfmdr1 mRNA expression organism selected on 80 ng/ml of compound by quantitative real-time RT-PCR with respect to wild type; format: functional, organism-based
Plasmodium falciparum [15] = test: Antimalarial activity against Plasmodium falciparum W2 organism selected on 40 ng/ml compound concentration; format: functional, organism-based
Plasmodium falciparum [16] = test: Antimalarial activity against Plasmodium falciparum W2 assessed as inhibition of [3H]hypoxanthine uptake organism selected on 50 ng/mL compound concentration; format: functional, organism-based
Plasmodium falciparum [17] = test: Antimalarial activity against Plasmodium falciparum W2 assessed as inhibition of [3H]hypoxanthine uptake organism selected on 80 ng/mL compound concentration; format: functional, organism-based
Plasmodium falciparum [18] = test: Antimalarial activity against Plasmodium falciparum W2 harboring 3 copy number of pfmdr1 gene organism selected at 120 ng/ml compound concentration; format: functional, organism-based
Plasmodium falciparum [19] = test: Antimalarial activity against Plasmodium falciparum TM91C235 assessed as level of pfmdr1 mRNA expression organism selected on 80 ng/ml of compound by quantitative real-time RT-PCR with respect to wild type; format: functional
Plasmodium falciparum [20] = test: Antimalarial activity against Plasmodium falciparum TM91C235 assessed as inhibition of [3H]hypoxanthine uptake organism selected on 50 ng/mL compound concentration; format: functional, organism-based
Plasmodium falciparum [21] = test: Antimalarial activity against Plasmodium falciparum W2 harboring 3 copy number of pfmdr1 gene organism selected at 80 ng/ml compound concentration; format: functional, organism-based
Plasmodium falciparum [22] = test: Antimalarial activity against Plasmodium falciparum D6 organism selected on 30 ng/ml compound concentration; format: functional, organism-based
Plasmodium falciparum [23] = test: Antimalarial activity against Plasmodium falciparum D6 assessed as inhibition of [3H]hypoxanthine uptake organism selected on 50 ng/ml compound concentration; format: functional, organism-based
Plasmodium falciparum [24] = test: Antimalarial activity against Plasmodium falciparum W2 assessed as level of pfmdr1 mRNA expression organism selected on 40 ng/ml of compound by quantitative real-time RT-PCR with respect to wild type; format: functional
Plasmodium falciparum [25] = test: Antimalarial activity against Plasmodium falciparum W2 harboring 2 copy number of pfmdr1 gene organism selected at 40 ng/ml compound concentration; format: functional, organism-based
Plasmodium falciparum [26] = test: Antimalarial activity against Plasmodium falciparum W2 harboring 2 copy number of pfmdr1 gene organism selected at 200 ng/ml compound concentration; format: functional, organism-based

C[C@@H]1[C@H](OCc2ccc(C(=O)O)cc2)O[C@@H]2O[C@@]3(C)CC[C@@H]4[C@@H](C)CC[C@@H]1[C@]24OO3 [ARTELINIC ACID]
fold change (FC) (Plasmodium falciparum [1]): 3
Activity (Plasmodium falciparum [2]): inactive
IC50 (Plasmodium falciparum [3]): 0.0246 µM
IC90 (Plasmodium falciparum [3]): 0.0759 µM
IC90 (Plasmodium falciparum [4]): 0.0218 µM
IC50 (Plasmodium falciparum [5]): 0.0236 µM
IC90 (Plasmodium falciparum [5]): 0.0759 µM
IC50 (Plasmodium falciparum [6]): 0.0111 µM
IC90 (Plasmodium falciparum [6]): 0.023 µM
Activity (Plasmodium falciparum [7]): inactive
Activity (Plasmodium falciparum [8]): Active
Activity (Plasmodium falciparum [9]): Active
Activity (Plasmodium falciparum [10]): inactive
Activity (Plasmodium falciparum [11]): inactive
IC50 (Plasmodium falciparum [12]): 0.00437 µM
IC90 (Plasmodium falciparum [12]): 0.00745 µM
Activity (Plasmodium falciparum [13]): inactive
Activity (Plasmodium falciparum [14]): Active
Activity (Plasmodium falciparum [15]): inactive
IC50 (Plasmodium falciparum [16]): 0.0233 µM
IC90 (Plasmodium falciparum [16]): 0.0513 µM
IC50 (Plasmodium falciparum [17]): 0.0227 µM
IC90 (Plasmodium falciparum [17]): 0.0568 µM
Activity (Plasmodium falciparum [18]): Active
fold change (FC) (Plasmodium falciparum [19]): 2.1
IC50 (Plasmodium falciparum [20]): 0.0337 µM
IC90 (Plasmodium falciparum [20]): 0.0535 µM
Activity (Plasmodium falciparum [21]): inactive
Activity (Plasmodium falciparum [22]): inactive
IC50 (Plasmodium falciparum [23]): 0.034 µM
IC90 (Plasmodium falciparum [23]): 0.0813 µM

C[C@@H]1CC[C@H]2[C@@H](C)C(=O)O[C@@H]3O[C@@]4(C)CC[C@@H]1[C@]32OO4 [ARTEMISININ]
fold change (FC) (Plasmodium falciparum [24]): 2.2
Activity (Plasmodium falciparum [25]): inactive
Activity (Plasmodium falciparum [26]): inactive
